We go through 15 compounds from US10399940B2, “Substituted pyrrolidines and methods of use” (AbbVie S.à.r.l., priority 2016, dated 2019).

Like-named read-outs stand apart in the source and are kept apart here.

The assay deals with T1, F508delCFTR (Homo sapiens, UniProt P13569, DEL508-508).
T1 construct: expressed in transfected cells; host or cells: CFBE41o- (human lung derived epithelial cell line), doxycycline-inducible expression
Briefly: Cell Surface Expression-Horse Radish Peroxidase (CSE-HRP) assay. The format is cell-based. The conditions noted are these: CFBE41o-F508delCFTR-HRP cells; for Maximum % activity (with co-corrector): with co-corrector (2 μM); for Maximum % activity (with co-corrector) / Maximum % activity (without co-corrector): normalized to on-plate positive control, highest concentration 20 μM. The procedure, abridged:
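Surface F508delCFTR-HRP was read by luminol luminescence after 18–24 h compound exposure at 33 °C, without or with 2 μM co-corrector. Doses were eight 3-fold steps from 20 μM, in doxycycline-induced (0.5 μg/mL, 72 h) CFBE41o- cells. % activity was scaled to the on-plate 2 μM positive control minus DMSO; EC50 came from a variable-slope sigmoid fit.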

The mark [1] stands for this setting: test compound without co-corrector, 18-24 hours at 33° C., read-out: EC50 (without co-corrector).
[2] abbreviates: with co-corrector (2 μM of 3-[(2R,4R)-4-({[1-(2,2-difluoro-1,3-benzodioxol-5-yl)cyclopropyl]carbonyl}amino)-7-methoxy-3,4-dihydro-2H-chromen-2-yl]benzoic acid), read-out: EC50 (with co-corrector).

T1 sequence (P13569 with tags, fused parts or gaps DEL508-508): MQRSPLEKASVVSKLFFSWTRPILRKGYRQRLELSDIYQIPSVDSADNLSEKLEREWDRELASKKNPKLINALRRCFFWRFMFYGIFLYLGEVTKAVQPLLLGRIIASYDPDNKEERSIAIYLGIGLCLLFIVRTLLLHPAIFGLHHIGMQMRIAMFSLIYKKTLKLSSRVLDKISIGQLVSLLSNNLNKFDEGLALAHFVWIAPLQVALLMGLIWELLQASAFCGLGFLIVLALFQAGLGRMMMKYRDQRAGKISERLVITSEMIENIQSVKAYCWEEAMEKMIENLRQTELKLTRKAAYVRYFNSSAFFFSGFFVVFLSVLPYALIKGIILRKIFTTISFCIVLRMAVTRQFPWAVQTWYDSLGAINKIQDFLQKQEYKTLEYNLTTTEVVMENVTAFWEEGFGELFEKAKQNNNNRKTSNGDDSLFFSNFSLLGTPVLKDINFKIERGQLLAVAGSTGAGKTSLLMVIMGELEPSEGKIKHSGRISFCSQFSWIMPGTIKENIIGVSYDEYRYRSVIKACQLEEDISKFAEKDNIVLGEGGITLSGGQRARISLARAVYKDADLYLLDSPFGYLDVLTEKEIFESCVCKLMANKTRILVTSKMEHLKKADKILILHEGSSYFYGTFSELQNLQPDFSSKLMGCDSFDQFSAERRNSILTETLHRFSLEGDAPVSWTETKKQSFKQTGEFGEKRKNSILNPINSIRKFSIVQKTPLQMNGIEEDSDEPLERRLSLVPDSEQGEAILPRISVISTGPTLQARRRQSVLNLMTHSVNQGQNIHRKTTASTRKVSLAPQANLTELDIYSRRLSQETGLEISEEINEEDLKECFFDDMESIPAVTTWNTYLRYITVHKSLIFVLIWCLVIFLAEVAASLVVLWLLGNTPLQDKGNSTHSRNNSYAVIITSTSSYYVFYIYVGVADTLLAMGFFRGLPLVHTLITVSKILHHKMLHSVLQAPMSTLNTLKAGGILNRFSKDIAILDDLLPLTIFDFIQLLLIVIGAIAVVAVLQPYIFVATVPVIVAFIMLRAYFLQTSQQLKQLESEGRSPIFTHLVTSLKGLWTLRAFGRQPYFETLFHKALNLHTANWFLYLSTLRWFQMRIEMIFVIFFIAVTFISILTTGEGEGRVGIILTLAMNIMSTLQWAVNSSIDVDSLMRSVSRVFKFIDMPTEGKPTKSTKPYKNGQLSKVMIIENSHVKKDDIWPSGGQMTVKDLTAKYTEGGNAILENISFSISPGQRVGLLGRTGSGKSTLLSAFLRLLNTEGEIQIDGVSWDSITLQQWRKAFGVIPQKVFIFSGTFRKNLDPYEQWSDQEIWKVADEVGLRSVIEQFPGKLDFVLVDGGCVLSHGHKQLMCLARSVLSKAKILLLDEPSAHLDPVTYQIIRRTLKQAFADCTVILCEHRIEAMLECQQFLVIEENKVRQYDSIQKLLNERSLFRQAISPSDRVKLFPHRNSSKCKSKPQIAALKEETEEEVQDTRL

For orientation: EC50 means the midpoint of the concentration-response curve. `CC(C)Oc1ncccc1[C@H]1[C@@H](OCc2cc3cc(C4CCC4)ccc3o2)[C@H](C(C)(C)C)[C@@H](C(=O)O)N1C(=O)[C@@H]1CCCCO1` [Example 296, (2S,3R,4S,5S)-3-tert-butyl-4-[(5-cyclobutyl-1-benzofuran-2-yl)methoxy]-1-[(2S)-oxane-2-carbonyl]-5-{2-[(propan-2-yl)oxy]pyridin-3-yl}pyrrolidine-2-carboxylic acid]: the “Maximum % activity (with co-corrector)” value is “++ (≥150 and <350)”; the “Maximum % activity (without co-corrector)” value is “+ (<100)”. For the same compound, the EC50 under setting [1] was 1 to 10 µM. Moreover, the EC50 under setting [2] is below 1 µM.
For the compound `COc1ccc(C2(C)CCC2)cc1CO[C@H]1[C@H](C(C)(C)C)[C@@H](C(=O)O)N(C(=O)OC(C)C)[C@H]1c1cccnc1OC(C)C` [Example 246, (2S,3R,4S,5S)-3-tert-butyl-4-{[2-methoxy-5-(1-methylcyclobutyl)phenyl]methoxy}-1-{[(propan-2-yl)oxy]carbonyl}-5-{2-[(propan-2-yl)oxy]pyridin-3-yl}pyrrolidine-2-carboxylic acid], the “Maximum % activity (with co-corrector)” value was “+++ (≥350)” and the “Maximum % activity (without co-corrector)” value is “+++ (≥200)”. For the same compound, under setting [1], the EC50 lay within 1 to 10 µM. Besides, the EC50 under setting [2] is below 1 µM.
On the same counts, the results for `CCc1ccccc1[C@H]1[C@@H](OCc2ccc(C(F)(F)F)cc2OC)[C@H](C(C)(C)C)[C@@H](C(=O)O)N1C(=O)[C@@H]1CCCCO1` [Example 184, (2S,3R,4S,5S)-3-tert-butyl-5-(2-ethylphenyl)-4-{[2-methoxy-4-(trifluoromethyl)phenyl]methoxy}-1-[(2S)-oxane-2-carbonyl]pyrrolidine-2-carboxylic acid] are “+++ (≥350)”, “+++ (≥200)”, below 1 µM and below 1 µM.
On the same counts, the results for `COc1nc2cc(C)cc(C)c2cc1CO[C@H]1[C@H](C(C)(C)C)[C@@H](C(=O)O)N(C(=O)[C@@H]2CCCCO2)[C@H]1c1ccccc1C` [Example 238, (2S,3R,4S,5S)-3-tert-butyl-4-[(2-methoxy-5,7-dimethylquinolin-3-yl)methoxy]-5-(2-methylphenyl)-1-[(2S)-oxane-2-carbonyl]pyrrolidine-2-carboxylic acid] are “+++ (≥350)”, “+++ (≥200)”, 1 to 10 µM and below 1 µM.
Turning to `COc1ncc(C(F)(F)F)cc1CO[C@H]1[C@H](C(C)(C)OC)[C@@H](C(=O)O)N(C(=O)OC(C)C)[C@H]1c1ccccc1C(C)C` [Example 259, (2S,3R,4S,5S)-3-(2-methoxypropan-2-yl)-4-{[2-methoxy-5-(trifluoromethyl)pyridin-3-yl]methoxy}-1-{[(propan-2-yl)oxy]carbonyl}-5-[2-(propan-2-yl)phenyl]pyrrolidine-2-carboxylic acid], the “Maximum % activity (with co-corrector)” value is given as “+++ (≥350)” and the “Maximum % activity (without co-corrector)” value is “+++ (≥200)”. Further, the EC50 under setting [1] was below 1 µM. Besides, the concentration giving a half-maximal response (EC50) under setting [2] is below 1 µM.
As to `COc1ncc(C(F)(F)F)cc1CO[C@@H]1[C@H](C(C)(C)C)[C@@H](C(=O)O)N(C(=O)C2CCCCC2)[C@H]1c1cccnc1OC(C)C` [Example 164, (2S,3R,4R,5S)-3-tert-butyl-1-(cyclohexanecarbonyl)-4-{[2-methoxy-5-(trifluoromethyl)pyridin-3-yl]methoxy}-5-{2-[(propan-2-yl)oxy]pyridin-3-yl}pyrrolidine-2-carboxylic acid], the “Maximum % activity (with co-corrector)” value was “+ (<150)” and the “Maximum % activity (without co-corrector)” value is recorded as “+ (<100)”. Under setting [1], the EC50 was above 10 µM. Further, under setting [2], the half-maximal effective concentration (EC50) is above 10 µM.
On to `COc1ncc(C(F)(F)F)cc1CO[C@H]1[C@H](C(C)(C)C)[C@@H](C(=O)O)N(C(=O)[C@@H]2CCCO2)[C@H]1c1ccccc1` [Example 88, (2S,3R,4S,5S)-3-tert-butyl-4-{[2-methoxy-5-(trifluoromethyl)pyridin-3-yl]methoxy}-1-[(2S)-oxolane-2-carbonyl]-5-phenylpyrrolidine-2-carboxylic acid], for which the “Maximum % activity (with co-corrector)” value is given as “+++ (≥350)”; the “Maximum % activity (without co-corrector)” value was “++ (≥100 and <200)”. Further, the EC50 under setting [1] was 1 to 10 µM. Also, the half-maximal effective concentration (EC50) under setting [2] is below 1 µM.
With `COc1ccc(C(F)(F)F)cc1COC1[C@@H](c2ccccc2)N(C(=O)N(C(C)C)C(C)C)[C@@H](C(=O)O)[C@@H]1C(C)(C)C` (mixture of isomers) [Example 7, rac-(2R,3S,5R)-3-tert-butyl-1-[di(propan-2-yl)carbamoyl]-4-{[2-methoxy-5-(trifluoromethyl)phenyl]methoxy}-5-phenylpyrrolidine-2-carboxylic acid], the “Maximum % activity (with co-corrector)” value is listed as “+ (<150)” and the “Maximum % activity (without co-corrector)” value is “+ (<100)”. For the same compound, the EC50 under setting [1] is above 10 µM. For the same compound, the EC50 under setting [2] is above 10 µM.
With `COc1ccc(C(F)(F)F)cc1COC1[C@@H](c2ccccc2)N(C(=O)C2CCCCC2)[C@@H](C(=O)O)[C@@H]1C(C)(C)C` (mixture of isomers) [Example 2, rac-(2R,3S,5R)-3-tert-butyl-1-(cyclohexanecarbonyl)-4-{[2-methoxy-5-(trifluoromethyl)phenyl]methoxy}-5-phenylpyrrolidine-2-carboxylic acid], the “Maximum % activity (with co-corrector)” value was “+++ (≥350)”; the “Maximum % activity (without co-corrector)” value was “++ (≥100 and <200)”. The EC50 under setting [1] was in the range of 1 to 10 µM. Besides, under setting [2], the EC50 lay within 1 to 10 µM.
On to `COc1ncc(C(F)(F)F)cc1CO[C@H]1[C@H](C(C)(C)C)[C@@H](C(=O)O)N(C(=O)[C@@H]2CCCCO2)[C@H]1c1cc(Cl)ccc1C` [Example 230, (2S,3R,4S,5S)-3-tert-butyl-5-(5-chloro-2-methylphenyl)-4-{[2-methoxy-5-(trifluoromethyl)pyridin-3-yl]methoxy}-1-[(2S)-oxane-2-carbonyl]pyrrolidine-2-carboxylic acid], for which the “Maximum % activity (with co-corrector)” value is on record as “+++ (≥350)”; the “Maximum % activity (without co-corrector)” value is “++ (≥100 and <200)”. In addition, the EC50 under setting [1] lay within 1 to 10 µM. Under setting [2], the 50% effective concentration (EC50) is below 1 µM.
Regarding “(2S,3R,4S,5S)-5-(2-bromophenyl)-3-tert-butyl-4-[(5-cyclobutyl-2-methoxypyridin-3-yl)methoxy]-1-[(2S)-oxane-2-carbonyl]pyrrolidine-2-carboxylic acid [Example 177]”, the “Maximum % activity (with co-corrector)” value is reported as “+++ (≥350)”; the “Maximum % activity (without co-corrector)” value was “++ (≥100 and <200)”. Further, the half-maximal effective concentration (EC50) under setting [1] was 1 to 10 µM. Besides, the concentration giving a half-maximal response (EC50) under setting [2] was in the range of 1 to 10 µM.
Regarding `COc1ncc(C(F)(F)F)cc1CO[C@H]1[C@H](C(C)(C)C)[C@@H](C(=O)O)N(C(=O)[C@@H]2CCCCO2)[C@H]1c1ccccc1-c1ccc2c(c1)OCO2` [Example 203, (2S,3R,4S,5S)-5-[2-(2H-1,3-benzodioxol-5-yl)phenyl]-3-tert-butyl-4-{[2-methoxy-5-(trifluoromethyl)pyridin-3-yl]methoxy}-1-[(2S)-oxane-2-carbonyl]pyrrolidine-2-carboxylic acid], the “Maximum % activity (with co-corrector)” value is listed as “+++ (≥350)” and the “Maximum % activity (without co-corrector)” value was “+++ (≥200)”. The half-maximal effective concentration (EC50) under setting [1] was in the range of 1 to 10 µM. Further, under setting [2], the EC50 was in the range of 1 to 10 µM.
Consider `COc1ncc(C(F)(F)F)cc1CO[C@H]1[C@H](C(C)(C)C)[C@@H](C(=O)O)N(C(=O)[C@@H]2CCCCO2)[C@H]1c1ccccc1C(C)C` [Example 96, (2S,3R,4S,5S)-3-tert-butyl-4-{[2-methoxy-5-(trifluoromethyl)pyridin-3-yl]methoxy}-1-[(2S)-oxane-2-carbonyl]-5-[2-(propan-2-yl)phenyl]pyrrolidine-2-carboxylic acid], for which the “Maximum % activity (with co-corrector)” value is reported as “+++ (≥350)” and the “Maximum % activity (without co-corrector)” value is listed as “+++ (≥200)”. In addition, the EC50 under setting [1] was below 1 µM. The 50% effective concentration (EC50) under setting [2] was below 1 µM.
Turning to `COc1ncc(C(F)(F)F)cc1CO[C@H]1[C@H](C(C)(C)C)[C@@H](C(=O)O)N(C(=O)C2CCC2)[C@H]1c1cccnc1OC(C)C` [Example 160, (2S,3R,4S,5S)-3-tert-butyl-1-(cyclobutanecarbonyl)-4-{[2-methoxy-5-(trifluoromethyl)pyridin-3-yl]methoxy}-5-{2-[(propan-2-yl)oxy]pyridin-3-yl}pyrrolidine-2-carboxylic acid], the “Maximum % activity (with co-corrector)” value was “++ (≥150 and <350)”; the “Maximum % activity (without co-corrector)” value is “+ (<100)”. For the same compound, the EC50 under setting [1] is 1 to 10 µM. For the same compound, under setting [2], the EC50 lay within 1 to 10 µM.
On to `COc1ncc(C(F)(F)F)cc1CO[C@H]1[C@H](C(C)(C)C)[C@@H](C(=O)O)N(C(=O)[C@H]2CCOC2)[C@H]1c1ccccc1C(C)C` [Example 109, (2S,3R,4S,5S)-3-tert-butyl-4-{[2-methoxy-5-(trifluoromethyl)pyridin-3-yl]methoxy}-1-[(3S)-oxolane-3-carbonyl]-5-[2-(propan-2-yl)phenyl]pyrrolidine-2-carboxylic acid], for which the “Maximum % activity (with co-corrector)” value is “++ (≥150 and <350)”; the “Maximum % activity (without co-corrector)” value is on record as “+ (<100)”. Besides, the 50% effective concentration (EC50) under setting [1] was 1 to 10 µM. In addition, the EC50 under setting [2] lay in the range of 1 to 10 µM.
